Reference: patent US11560400B2, “Salts of diphosphate phosphoramidate of nucleosides as anticancer compounds” (NuCana plc, priority 2017, dated 2023)
“Also recorded” adds a separate entry of the source. Read-outs that look alike come from different tables or passages of the source.

Assays:
RL = test: CellTiterGlo cell viability assay, RL; format: cell-based; conditions: Homo sapiens, 72 h; for EC50: read-out: Ab EC50
Method in brief: (§1)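 72 h CTG viability; 9-pt, 3.16-fold titration, 198 μM top to 19.8 nM final; duplicates; 0.5% DMSO final; standard growth conditions. Read-out: absolute EC50 and % inhibition at highest concentration.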

HL-60 = test: CellTiterGlo cell viability assay, HL-60; format: cell-based; conditions: HL-60, 72 h; for EC50: read-out: Ab EC50
Method in brief: as §1

MOLT-4 = test: CellTiterGlo cell viability assay, MOLT-4; format: cell-based; conditions: MOLT-4, 72 h; for EC50: read-out: Ab EC50
Method in brief: as §1

KG1a cells = test: In vitro cytotoxicity, Annexin V/propidium iodide assay in KG1a cells; format: cell-based; conditions: for change of potency (mean LD50) under hypoxic versus normoxic conditions: 5% oxygen
Experimental: The acute myeloid leukaemia (AML) KG1a cell line was maintained in RPMI medium (Invitrogen, Paisley, UK) supplemented with 100 units/mL penicillin, 100 μg/mL streptomycin and 20% foetal calf serum. Cells were subsequently aliquoted (10^5 cells/100 μL) into 96-well plates and were incubated at 37° C. in a humidified normoxic (20% oxygen) or hypoxic (1% or 5% oxygen) atmosphere for 48 h in the presence of clofarabine, or clofarabine diphosphate phosphoramidates of the invention (1×10^−10M-1×10^−6M). In addition, control cultures were carried out to which no drug was added. Cells were subsequently harvested by centrifugation and were analysed by flow cytometry using the Annexin V assay.
Cultured cells were harvested by centrifugation and then resuspended in 195 μL of calcium-rich buffer. Subsequently, 5 μL of Annexin V (Caltag Medsystems, Botolph Claydon, UK) was added to the cell suspension and cells were incubated in the dark for 10 mins prior to washing. Cells were finally resuspended in 190 μL of calcium-rich buffer together with 10 μL of propidium iodide. Apoptosis was assessed by dual-colour immunofluorescent flow cytometry as described previously. Subsequently LD50 values (the dose required to kill 50% of the cells in a culture) were calculated for each nucleoside analogue and diphosphate phosphoramidate.
The data obtained in these experiments were evaluated using one-way ANOVA. All data was confirmed as Gaussian or a Gaussian approximation using the omnibus K2 test. LD50 values were calculated from the non-linear regression and line of best-fit analysis of the sigmoidal dose-response curves. All statistical analyses were performed using Graphpad Prism 6.0 software (Graphpad Software Inc., San Diego, Calif.).
The in vitro drug sensitivity of KG1a cells was assessed using the Annexin V/propidium iodide assay.

MCF-7 = test: CellTiterGlo cell viability assay, MCF-7; format: cell-based; conditions: Homo sapiens, MCF7, 72 h, MCF-7, 72 h; for EC50: read-out: Ab EC50
Method in brief: as §1

K562 = test: CellTiterGlo cell viability assay, K562; format: cell-based; conditions: for EC50: read-out: Ab EC50
Method in brief: as §1

HT29 = test: CellTiterGlo cell viability assay, HT29; format: cell-based; conditions: Homo sapiens, HT-29, 72 h, HT29, 72 h; for EC50: read-out: Ab EC50
Method in brief: as §1

OVCAR 3 = test: CellTiterGlo cell viability assay, OVCAR 3; format: cell-based; conditions: for EC50: OVCAR 3, 72 h, read-out: Ab EC50
Method in brief: as §1

RPMI-8226 = test: CellTiterGlo cell viability assay, RPMI-8226; format: cell-based, Human; conditions: Homo sapiens, RPMI-8226, 72 h; for EC50: read-out: Ab EC50
Method in brief: as §1

KG-1 = test: CellTiterGlo cell viability assay, KG-1; format: cell-based; conditions: Homo sapiens, KG-1, 72 h
Method in brief: as §1

HepG2 = test: CellTiterGlo cell viability assay, HepG2; format: cell-based; conditions: Homo sapiens, HepG2, 72 h; for EC50: read-out: Ab EC50
Method in brief: as §1

in vitro = conditions: human, pooled cryopreserved hepatocytes, pH 7.3
CCRF-CEM = test: CellTiterGlo cell viability assay, CCRF-CEM; format: cell-based; conditions: 72 h; for EC50: read-out: Ab EC50
Method in brief: as §1

[1] = percentage inhibition at the highest concentration tested, read-out: Top Inh
[2] = Homo sapiens, percentage inhibition at the highest concentration tested, read-out: Top Inh
[3] = percentage inhibition at the highest concentration tested, read-out: Top Inhibit

Nc1nc(Cl)nc2c1ncn2[C@@H]1O[C@H](CO)[C@@H](O)[C@@H]1F [Clofarabine, reference compound]
EC50 (RL; Table 3 classes): 200 to 2000 nM
EC50 (RL; Table 4 classes): 200 to 1000 nM
inhibition at 198 µM (RL; [1]): 77%
EC50 (HL-60; Table 4 classes): < 200 nM
EC50 (HL-60; Homo sapiens, Table 3 classes): < 200 nM
inhibition at 198 µM (HL-60; [2]): 97%
inhibition at 198 µM (MOLT-4; [2]): 84.1%
EC50 (MOLT-4; Homo sapiens, Table 3 classes): < 200 nM
EC50 (MOLT-4; Table 4 classes): < 200 nM
change of potency (mean LD50) under hypoxic versus normoxic conditions (KG1a cells; in words): significant loss in potency under hypoxic conditions; also recorded: significant reduction in potency
change of potency (mean LD50) under hypoxic versus normoxic conditions (KG1a cells; in words, listed as clofarabine): significant increase in mean LD50 under hypoxic conditions; also recorded: significant reduction in potency
Hypoxia Mean LD50 (KG1a cells; 48 h, hypoxic (5% O2)): 53.1 nM
Mean LD50 (Normoxia Mean LD50) (KG1a cells; 48 h, normoxic (20% oxygen)): 16.9 nM
mean LD50 under hypoxic conditions (KG1a cells; hypoxic (5% oxygen)): 53.1 nM
potency in KG1a cells (dose-response curves) (KG1a cells; in words): highest potency
mean LD50 (KG1a cells; normoxic): 16.9 nM
Ratio Normoxia/Hypoxia (KG1a cells; ratio of mean LD50 values): 31.8
EC50 (MCF-7; Table 3 classes): 200 to 2000 nM
EC50 (MCF-7; Table 4 classes): 200 to 1000 nM
inhibition at 198 µM (MCF-7; [3]): 55%
inhibition at 198 µM (K562; Homo sapiens, K562, 72 h, percentage inhibition at the highest concentration tested, read-out: Top Inh): 23%
EC50 (K562; Homo sapiens, K562, 72 h, Table 3 classes): > 10000 nM
EC50 (K562; K 562, 72 h, Table 4 classes): > 10000 nM
EC50 (HT29; Table 3 classes): 200 to 2000 nM
EC50 (HT29; Table 4 classes): 200 to 1000 nM
inhibition at 198 µM (HT29; [3]): 64%
inhibition at 198 µM (OVCAR 3; Homo sapiens, OVCAR-3, 72 h, percentage inhibition at the highest concentration tested, read-out: Top Inhibit): 48%
EC50 (OVCAR 3; Homo sapiens, Table 3 classes): > 10000 nM
EC50 (OVCAR 3; Table 4 classes): > 10000 nM
EC50 (RPMI-8226; Table 3 classes): 5000 to 10000 nM
EC50 (RPMI-8226; Table 4 classes): > 10000 nM
inhibition at 198 µM (RPMI-8226; [1]): 89%
EC50 (KG-1; Table 4 classes, read-out: Ab EC50): < 200 nM
inhibition at 198 µM (KG-1; [3]): 93%
EC50 (HepG2; Table 3 classes): 2000 to 5000 nM
EC50 (HepG2; Table 4 classes): 1000 to 5000 nM
inhibition at 198 µM (HepG2; [3]): 64%
half-life at 1 μM (in vitro): > 2 h
EC50 (CCRF-CEM; Table 4 classes): < 200 nM
EC50 (CCRF-CEM; Homo sapiens, Table 3 classes): < 200 nM
inhibition at 198 µM (CCRF-CEM; [2]): 98.7%
